Source: US20070248705A1, “Agents for Activating the Transcription Factor Nrf2 and Foods Having Such Function” (KIRIN BEER KABUSHIKI KAISHA, priority 2004, published 2007)

How the values were obtained:
[1] = system: mouse macrophage cell line RAW264.7; experiment: Amount of intracellular glutathione; type: cell-based; settings: RAW264.7, 25 μM, 20 hours
Procedure: A mouse macrophage cell line RAW264.7 was seeded on a φ60 mm dish (7×10^5 cells), 2 ml of a D-MEM medium (Invitrogen) supplemented with 10% fetal bovine serum (HyClone) and penicillin-streptomycin (100 units/ml and 100 μg/ml, respectively; Sigma) was added, and the dish was incubated at 37° C. in an atmosphere of 5% CO2 for 2 days. The medium was replaced with a fresh medium containing individual samples and incubation was continued for another 20 hours. The samples added were isohumulone (IH(F)) and isohumulone (IcH(G)) at a concentration of 25 μM. The cells were recovered, broken by ultrasonication, and centrifuged to obtain the supernatant, and the amount of the total intracellular glutathione was measured using a glutathione assay kit (Cayman Chemical) (n=2, mean±standard deviation). As a positive control, 15dPGJ2 (Cayman Chemical) was used.

[2] = system: heme oxygenase 1 (HO1); experiment: Expression of genes controlled by Nrf2 in RAW264.7: HO1; type: cell-based, mouse; settings: RAW264.7, 25 μM, 20 hours
Procedure: (§1) A mouse macrophage cell line RAW264.7 was seeded on a φ60 mm dish (9×10^5 cells), 2 ml of a D-MEM medium (Invitrogen) supplemented with 10% fetal bovine serum (HyClone) and penicillin-streptomycin (100 units/ml and 100 μg/ml, respectively; Sigma) was added, and the dish was incubated at 37° C. in an atmosphere of 5% CO2 for 2 days. The medium was replaced with a fresh medium containing individual samples and incubation was continued for another 20 hours. Then, the total RNA was prepared using TRIzol (Invitrogen) and purified using a RNeasy Mini kit (Qiagen) and an RNase-free DNase set (Qiagen). Further, cDNA was synthesized from 5 μg of the purified total RNA using a Thermo Script RT-PCR system (Invitrogen), and the amount of mRNA expression of various genes was determined using a FastStart DNA Master SYBR Green I kit (Roche) and a Light Cycler (Roche).
(§2) The amount of expression of the various genes was corrected by the amount of expression of the housekeeping gene PO and calculated as a relative expression level (n=2, mean±standard deviation). […]

[3] = system: NAD(P)H:quinone oxidoreductase (NQO1); experiment: Expression of genes controlled by Nrf2 in RAW264.7: NQO1; type: cell-based, mouse; settings: RAW264.7, 25 μM, 20 hours
Procedure: as §1, §2

[4] = system: glucose-6-phosphate dehydrogenase 2 (G6PD2); experiment: Expression of genes controlled by Nrf2 in RAW264.7: G6PD2; type: cell-based, mouse; settings: RAW264.7, 25 μM, 20 hours
Procedure: as §1, §2

[5] = system: glucose-6-phosphate dehydrogenase, X-linked (G6PDX); experiment: Expression of genes controlled by Nrf2 in RAW264.7: G6PDX; type: cell-based, mouse; settings: RAW264.7, 25 μM, 20 hours
Procedure: as §1, §2

[6] = system: thioredoxin reductase 1 (TXNRD1); experiment: Expression of genes controlled by Nrf2 in RAW264.7: TXNRD1; type: cell-based, mouse; settings: RAW264.7, 25 μM, 20 hours
Procedure: as §1, §2

[7] = system: glutamate cysteine ligase modifier subunit (GCLM); experiment: Expression of genes controlled by Nrf2 in RAW264.7: GCLM; type: cell-based, mouse; settings: RAW264.7, 25 μM, 20 hours
Procedure: as §1, §2

[8] = system: catalase 1 (CAT1); experiment: Expression of genes controlled by Nrf2 in RAW264.7: CAT1; type: cell-based, mouse; settings: RAW264.7, 25 μM, 20 hours
Procedure: as §1, §2

[9] = system: Nrf2; experiment: Nrf2 activation in ARE reporter assay system, RAW264.7; type: cell-based, mouse; settings: RAW264.7, 5 μM, 24 hours
Procedure: To construct the reporter plasmid pGL3-mARE3A, a double-stranded oligo DNA with 3 repeats of mouse NQO1-derived ARE (antioxidant response element) to which Nrf2 is believed to bind was constructed and inserted into the MluI-NheI site of the firefly luciferase reporter vector pGL3-promoter vector (available from Promega).
The double-stranded oligo DNA containing AREs was prepared by chemically synthesizing two single-stranded oligo DNAs, 5 ′-[…] G-3′ (SEQ ID NO: 1) and 5′-[…]-3′(SEQ ID NO: 2), and annealing them. Further, DNA sequence analysis confirmed that the product obtained was the plasmid of interest. Next, a mouse macrophage cell line RAW264.7 (available from American Type Culture Collection) was seeded on a 12-well plate (4×10^5 cells/well), 0.8 ml of an RPMI1640 medium (Invitrogen) supplemented with 10% fetal bovine serum (HyClone) and penicillin-streptomycin (100 units/ml and 100 μg/ml, respectively; Sigma) was added, and the plate was incubated at 37° C. in an atmosphere of 5% CO2 overnight. […] The cells were broken using a Dual-Luciferase reporter assay system (Promega) and then firefly luciferase activity and renilla luciferase activity were measured using a luminometer (Luminous CT-9000D, Dia-Iatron). […]

For `CC(C)=CCC(=O)C1(O)C(O)=C(C(=O)CC(C)C)C(=O)C1CC=C(C)C` (stereo not drawn) [IH (F), isohumulone], the “amount of the total intracellular glutathione” value [1] was “Increased the amount of the total intracellular glutathione”, the “expression of HO1” value [2] was “augmented the expression” and the “expression of NQO1” value [3] was “augmented the expression”. For the same compound, the “expression of G6PD2” value [4] was “augmented the expression”, the “expression of G6PDX” value [5] was “augmented the expression” and the “expression of TRNRD1” value [6] was “augmented the expression”. The “expression of GCLM” value [7] was “augmented the expression”, the “expression of CAT1” value [8] was “augmented the expression” and the “Nrf2 activation activity (relative luciferase activity)” value [9] was “confirmed the activation”.
